Results published in patent US12616697B2, “Methods of treatment with myosin modulator” (MyoKardia, Inc., priority 2020, dated 2026).
Values joined by “and” are separate entries in the source; they are usually repeats but may differ in a detail not shown here. Identical values can stand only once.

Columns and labels:
[1] = test system: adults with symptomatic oHCM; assay: PIONEER-OLE Phase 2 open-label extension study of mavacamten; format: in vivo
Protocol: All subjects were started on a dose of 5 mg QD.
To maximize safety, the starting dose will be 5 mg for all subjects. Subjects will return at Week 4 (±4 days) for a plasma PK sample to measure drug levels and to undergo echocardiography to determine LVOT gradient (at rest, after a Valsalva maneuver, and after exercise) and left ventricular ejection fraction (LVEF).
After Week 6, additional study visits will occur at Week 8 (±7 days), Week 12 (±7 days), and every 12 weeks (±7 days) thereafter. Subjects also will be contacted by phone in between clinic visits, at Week 18 and every 12 weeks thereafter. An end of study (EOS) visit will occur 12 weeks (±7 days) after the last administration of study drug. Visits (including the Screening visit which serves as the baseline) will entail recording vital signs, targeted physical examination, ECGs, safety laboratory tests, N-terminal pro b-type natriuretic peptide (NT-proBNP), adverse events (AEs), New York Heart Association (NYHA) functional class, Kansas City Cardiomyopathy Questionnaire (KCCQ) score, and concomitant medications. At Weeks 4, 8, 24, 36, 48, 60, 72, 96, 120, 144, 156/early termination (ET), and 168/EOS, a predose blood sample for assessment of drug concentration will be obtained. A standard TTE (including but not limited to assessment of LVOT gradient at rest and after Valsalva) will be performed at baseline, at Weeks 4, 8, 12, 24, 36, 48, 72, 96, 120, 144, 156/ET, and 168/EOS. In addition, a stress echocardiogram (with assessment of LVOT gradient post-exercise) will also be performed at baseline, Weeks 4, 48, 72, 156/ET, and 168/EOS.
The study endpoints include safety, tolerability, and select measures of efficacy using individualized dosing. Key measurements include LVOT gradient, LVEF, NT-proBNP.
• 1. Frequency and severity of treatment-emergent AEs and SAEs, • 2. Frequency of cardiovascular (CV) death, • 3. Frequency of sudden death, • 4. Frequency of CV hospitalization, • 5. Frequency of heart failure requiring the initiation of oral loop diuretics or the administration of intravenous loop diuretics, • 6. Frequency of myocardial infarction, • 7. Frequency of ventricular arrhythmias (ventricular tachycardia, ventricular fibrillation, ventricular flutter, torsade de pointe), • 8. Frequency of syncope, • 9. Frequency of seizures, • 10. Frequency of stroke, • 11. Frequency of LVEF≤45 as measured by echocardiography, • 12. QT and QTcF intervals over time. Efficacy and Pharmacodynamics Include: • 1. Post-exercise, post-Valsalva, and resting LVOT gradient over time, • 2. NYHA functional class over time, • 3. KCCQ scores over time, • 4. NT-proBNP over time, • 5. Frequency of septal reduction therapy.

[2] = test system: Yucatan mini-pigs with a heterozygous MYH7 R403Q mutation; assay: Chronic MYK-581 in mini-pig genetic model of non-obstructed HCM (cMR imaging, invasive hemodynamics, dobutamine challenge); format: in vivo; conditions: corrected for plasma protein binding and potency differences MYK-581 vs mavacamten
Protocol: The mini-pigs were treated for at least 12 weeks and were evaluated as shown in Schematic 1 below. […] After ˜14 weeks of treatment, all pigs underwent in vivo cMR imaging for the assessment of LV function and geometry, as well as of myocardial composition via of Late Gadolinium Enhancement (LGE) and T1 mapping techniques including extracellular volume (ECV) assessments. In addition, a subset of animals (MYK: n=6, CTRL: n=5) also underwent terminal invasive hemodynamics assessments, including cardiac output (CO, via thermodilution), load-independent systolic/diastolic function (via LV pressure-volume relationships), and β-adrenergic (β-AR) cardiac reserve (via dobutamine at 5 ug/kg/min IV).
The mini-pig model can be obtained following the method disclosed in a presentation entitled “A Minipig Genetic Model of Hypertrophic Cardiomyopathy Uncovers the Pathophysiological Mechanisms of Disease Evolution”, by E. Green et al., at University of Iowa, Carver College of Medicine.

CC(C)n1c(=O)cc(N[C@@H](C)c2ccccc2)[nH]c1=O [mavacamten, (S)-3-Isopropyl-6-((1-phenylethyl)amino)pyrimidine-2, 4(1H,3H)-dione]
cardiac-related adverse events attributed to study drug ([1]; 48-week period): no cardiac-related adverse events (AEs) attributed to study drug
E/e′ lateral, mean ([1]; Change from Baseline to Week 48): −3.4
E/e′ lateral, mean ([1]; Week 12): 9.8
IVS (interventricular septal thickness), mean ([1]; Week 12): 16.0 mm
IVS (interventricular septal thickness), mean ([1]; Week 12, listed as Mavacamten): 15.9 ± 2.7 mm
E/e′ lateral, mean ([1]; Week 24): 10.2
IVS (interventricular septal thickness), mean ([1]; Week 24): 15.8 mm
IVS (interventricular septal thickness), mean ([1]; Week 24, listed as Mavacamten): 15.8 ± 2.7 mm
E/e′ lateral, mean ([1]; Week 36): 8.5
IVS (interventricular septal thickness), mean ([1]; Week 36): 15.4 mm
IVS (interventricular septal thickness), mean ([1]; Week 36, listed as Mavacamten): 15.4 ± 2.7 mm
E/e′ lateral, mean ([1]; Week 48): 9.1
IVS (interventricular septal thickness), mean ([1]; Week 48): 15 mm and 15.3 mm
IVS (interventricular septal thickness), mean change from baseline ([1]; Week 48): −1.5 mm
LVEF, mean change from baseline ([1]; Week 48): −1.8%
NT-proBNP, median ([1]; Week 48): 136.5 pg/mL
patients who achieved a post-exercise LVOT gradient <30 mm Hg ([1]; Week 48): Five
IVS (interventricular septal thickness), mean ([1]; Week 48, listed as Mavacamten): 15.5 ± 2.0 mm
IVS (interventricular septal thickness), mean change from baseline ([1]; Week 48, listed as Mavacamten): −1.2 mm and −1.2 ± 2.3 mm
median NT-proBNP, change from baseline ([1]; Week 60): -481 pg/mL
LVEF maintained ([1]; all patients at all timepoints): above 50%
AEs considered potentially related to study drug ([1]; in 3 subjects, 7 mild, 1 moderate): 8
equivalent human plasma concentrations [2]: 50 to 250 ng/mL
